Assay results as given in ChEMBL document CHEMBL1132957, “Design of potent dicyclic (4-10/5-8) gonadotropin releasing hormone (GnRH) antagonists” (J Med Chem, 2000).
One block for each compound: values may come before it. The source made the active and inactive calls. The rule behind the calls is not given here. Positions of bridges follow the written chain, without caps; N, C: chain ends. Non-standard residues stand in square brackets, D forms with d. Residues, ends and D or L forms follow the SMILES beside them. dPhe(4-F) = N[C@H](Cc1ccc(F)cc1)C(=O)O; d2Nal = N[C@H](Cc1ccc2ccccc2c1)C(=O)O; Dap = NC[C@H](N)C(=O)O

What was measured:
[1] = target: T1, Gonadotropin-releasing hormone receptor (Rattus norvegicus, UniProt P30969); test: Competitive radioligand binding assay, in human HEK293 cells stably transfected with the rat Gonadotropin-releasing hormone receptor; format: cell-based
T1 sequence (P30969 whole entry): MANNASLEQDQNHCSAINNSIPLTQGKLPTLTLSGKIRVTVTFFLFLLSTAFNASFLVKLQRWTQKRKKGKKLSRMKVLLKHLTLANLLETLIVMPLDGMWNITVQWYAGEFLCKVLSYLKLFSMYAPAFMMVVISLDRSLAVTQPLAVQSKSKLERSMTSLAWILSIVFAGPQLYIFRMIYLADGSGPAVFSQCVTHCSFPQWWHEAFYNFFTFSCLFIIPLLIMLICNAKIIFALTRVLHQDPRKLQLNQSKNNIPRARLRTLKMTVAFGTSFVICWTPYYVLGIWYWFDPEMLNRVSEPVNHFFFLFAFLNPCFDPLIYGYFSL

Rattus norvegicus [2] = test: Evaluated for the ovulation effects in the rat by administering the drug at the doses (100 ug); 5/5; format: functional, organism-based
Rattus norvegicus [3] = test: Evaluated for the ovulation effects in the rat by administering the drug at the doses (500 ug); 3/8; format: functional, organism-based
Rattus norvegicus [4] = test: Evaluated for the ovulation effects in the rat by administering the drug at the doses (5.0 ug); 4/7; format: functional, organism-based
Rattus norvegicus [5] = test: Evaluated for the ovulation effects in the rat by administering the drug at the doses (25 ug); 4/4; format: functional, organism-based
Rattus norvegicus [6] = test: Evaluated for the ovulation effects in the rat by administering the drug at the doses (0.5 ug); 5/5; format: functional, organism-based
Rattus norvegicus [7] = test: Evaluated for the ovulation effects in the rat by administering the drug at the doses (2.5 ug); 1/8; format: functional, organism-based
Rattus norvegicus [8] = test: Evaluated for the ovulation effects in the rat by administering the drug at the doses (1.0 ug); 2/11; format: functional, organism-based
Rattus norvegicus [9] = test: Evaluated for the ovulation effects in the rat by administering the drug at the doses (50 ug); 2/8; format: functional, organism-based
Rattus norvegicus [10] = test: Evaluated for the ovulation effects in the rat by administering the drug at the doses (100 ug); 1/8; format: functional, organism-based
Rattus norvegicus [11] = test: Evaluated for the ovulation effects in the rat by administering the drug at the doses (25 ug); 2/5; format: functional, organism-based
Rattus norvegicus [12] = test: Evaluated for the ovulation effects in the rat by administering the drug at the doses (5.0 ug); 0/6; format: functional, organism-based
Rattus norvegicus [13] = test: Evaluated for the ovulation effects in the rat by administering the drug at the doses (2.5 ug); 2/8

SMILES: CC(=O)N[C@H](Cc1ccc2ccccc2c1)C(=O)N[C@H](Cc1ccc(F)cc1)C(=O)N[C@H](Cc1c[nH]c2ccccc12)C(=O)N[C@H]1CC(=O)NC[C@@H](C(N)=O)NC(=O)[C@@H]2CCCN2C(=O)[C@H](CCCN=C(N)N)NC(=O)[C@H](CC(C)C)NC(=O)[C@@H](CCCN=C(N)N)NC(=O)[C@H](Cc2ccc(O)cc2)NC1=O (Ac-[d2Nal][dPhe(4-F)][dW]DY[dR]LRP[Dap]-NH2; lactam 4-10)
- Ki ([1]; hek293): 0.36 nM

SMILES: CC(=O)N[C@H](Cc1ccc2ccccc2c1)C(=O)N[C@H](Cc1ccc(Cl)cc1)C(=O)N[C@H](Cc1cccnc1)C(=O)N[C@H]1CC(=O)NC[C@@H](C(N)=O)NC(=O)[C@@H]2CCCN2C(=O)[C@@H]2CCNC(=O)[C@H](Cc3ccccc3)NC(=O)C[C@H](NC1=O)C(=O)N[C@H](CCCN=C(N)N)C(=O)N[C@@H](CC(C)C)C(=O)N2
- Activity (Rattus norvegicus [5]): inactive
- Ki [1]: 12 nM

SMILES: CC(=O)N[C@H](Cc1ccc2ccccc2c1)C(=O)N[C@H](Cc1ccc(Cl)cc1)C(=O)N[C@H](Cc1cccnc1)C(=O)N[C@H]1CC(=O)NC[C@@H](C(N)=O)NC(=O)[C@@H]2CCCN2C(=O)[C@@H]2CCNC(=O)[C@H](CCCN=C(N)N)NC(=O)CC[C@H](NC1=O)C(=O)N[C@H](CCCN=C(N)N)C(=O)N[C@@H](CC(C)C)C(=O)N2
- Ki [1]: 0.2 nM
- Activity (Rattus norvegicus [6]): inactive
- Activity (Rattus norvegicus [7]): Active
- Activity (Rattus norvegicus [8]): Active

SMILES: CC(=O)N[C@H](Cc1ccc2ccccc2c1)C(=O)N[C@H](Cc1ccc(F)cc1)C(=O)N[C@H](Cc1c[nH]c2ccccc12)C(=O)N[C@H]1CCC(=O)NC(C(N)=O)NC(=O)[C@@H]2CCCN2C(=O)[C@H](CCCNC(=N)N)NC(=O)[C@H](CC(C)C)NC(=O)[C@@H](CCCNC(=N)N)NC(=O)[C@H](Cc2ccc(O)cc2)NC1=O (stereo partly specified)
- Ki ([1]; hek293): 1.3 nM

SMILES: CC(=O)N[C@H](Cc1ccc2ccccc2c1)C(=O)N[C@H](Cc1ccc(Cl)cc1)C(=O)N[C@H](Cc1cccnc1)C(=O)N[C@H]1CC(=O)NC[C@@H](C(N)=O)NC(=O)[C@@H]2CCCN2C(=O)[C@@H]2CCNC(=O)[C@H](Cc3ccc(Cl)cc3)NC(=O)CC[C@H](NC1=O)C(=O)N[C@H](CCCN=C(N)N)C(=O)N[C@@H](CC(C)C)C(=O)N2
- Ki [1]: 0.23 nM
- Activity (Rattus norvegicus [12]): Active
- Activity (Rattus norvegicus [13]): Weak activity

The next lines start with results.

- Ki [1]: 120 nM
SMILES: CC(=O)N[C@H](Cc1ccc2ccccc2c1)C(=O)N[C@H](Cc1ccc(Cl)cc1)C(=O)N[C@H](Cc1cccnc1)C(=O)N[C@H]1CC(=O)NC[C@@H](C(N)=O)NC(=O)[C@@H]2CCCN2C(=O)[C@@H]2CCNC(=O)[C@@H](Cc3ccccc3)NC(=O)CC[C@H](NC1=O)C(=O)N[C@H](CCCN=C(N)N)C(=O)N[C@@H](CC(C)C)C(=O)N2
- Activity (Rattus norvegicus [2]): inactive
- Activity (Rattus norvegicus [3]): Weak activity

- Ki [1]: 0.37 nM
SMILES: CC(=O)N[C@H](Cc1ccc2ccccc2c1)C(=O)N[C@H](Cc1ccc(Cl)cc1)C(=O)N[C@H](Cc1cccnc1)C(=O)N[C@H]1CC(=O)NC[C@@H](C(N)=O)NC(=O)[C@@H]2CCCN2C(=O)[C@@H]2CCNC(=O)CCNC(=O)C[C@H](NC1=O)C(=O)N[C@H](CCCN=C(N)N)C(=O)N[C@@H](CC(C)C)C(=O)N2
- Activity (Rattus norvegicus [4]): Weak activity

- Ki [1]: 1.2 nM
SMILES: CC(=O)N[C@H](Cc1ccc2ccccc2c1)C(=O)N[C@H](Cc1ccc(Cl)cc1)C(=O)N[C@H](Cc1c[nH]c2ccccc12)C(=O)N[C@H]1CC(=O)NC[C@@H](C(N)=O)NC(=O)[C@@H]2CCCN2C(=O)[C@@H]2CCCCNC(=O)CC[C@H](NC1=O)C(=O)N[C@H](Cc1ccc3ccccc3c1)C(=O)N[C@@H](CC(C)C)C(=O)N2

- Ki [1]: 1.3 nM
SMILES: CC(=O)N[C@H](Cc1ccc2ccccc2c1)C(=O)N[C@H](Cc1ccc(Cl)cc1)C(=O)N[C@H](Cc1cccnc1)C(=O)N[C@H]1CC(=O)NC[C@@H](C(N)=O)NC(=O)[C@@H]2CCCN2C(=O)[C@@H]2CCCCNC(=O)CC[C@H](NC1=O)C(=O)N[C@H](Cc1ccc3ccccc3c1)C(=O)N[C@@H](CC(C)C)C(=O)N2
- Activity (Rattus norvegicus [9]): Weak activity
- Activity (Rattus norvegicus [10]): Active
- Activity (Rattus norvegicus [11]): Weak activity
